Test results published in US6358885B1, “Substituted phenylheterocyclic herbicides” (Mississippi State University, priority 1992, dated 2002).

What was measured:
barley = assay: Test B preemergence/postemergence greenhouse plant response rating 0 to 10; format: in vivo, Hordeum vulgare; details: 0 to 10 scale
Method in brief: (§1)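 Postemergence treatment of plants two to eighteen cm tall ran alongside preemergence treatment of planted seed, each using compound in a non-phytotoxic solvent.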

bedstraw = assay: as above; format: in vivo, Galium aparine; details: 0 to 10 scale
Method in brief: as §1

blackgrass = assay: as above; format: in vivo, Alopecurus myosuroides; details: 0 to 10 scale
Method in brief: as §1

cocklebur = assay: as above; format: in vivo, Xanthium pensylvanicum; details: 0 to 10 scale
Method in brief: as §1

crabgrass = assay: as above; format: in vivo, Digitaria spp.; details: 0 to 10 scale
Method in brief: as §1

lambsquarters = assay: as above; format: in vivo, Chenopodium album; details: 0 to 10 scale
Method in brief: as §1

rape = assay: as above; format: in vivo, Brassica napus; details: 0 to 10 scale
Method in brief: as §1

rice [1] = assay: as above; format: in vivo, Oryza sativa; details: 0 to 10 scale
Method in brief: as §1

soybean = assay: as above; format: in vivo, Glycine max; details: 0 to 10 scale
Method in brief: as §1

sugar beet = assay: as above; format: in vivo, Beta vulgaris; details: 0 to 10 scale
Method in brief: as §1

purple nutsedge = assay: as above; format: in vivo, Cyperus rotundus; details: 0 to 10 scale
Method in brief: as §1

corn = assay: Test C preemergence/postemergence greenhouse plant response rating 0 to 100; format: in vivo, Zea mays; details: POSTEMERGENCE
Method in brief: (§2)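 Compounds in non-phytotoxic solvent applied preemergence to sandy loam one day after planting, postemergence at the 1–4 leaf stage, or to ~2.5 cm floodwater over silt loam.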

morningglory = assay: as above; format: in vivo, Ipomoea hederacea; details: POSTEMERGENCE
Method in brief: as §2

pigweed = assay: as above; format: in vivo, Amaranthusretroflexus; details: POSTEMERGENCE
Method in brief: as §2

sorghum = assay: as above; format: in vivo, Sorghum bicolor; details: POSTEMERGENCE
Method in brief: as §2

rice [2] = assay: Test C flood test plant response rating 0 to 100; format: in vivo, Oryza sativa
Method in brief: as §2

umbrella sedge = assay: Test C flood test plant response rating 0 to 100; format: in vivo, Cyperus difformis
Method in brief: as §2

barnyardgrass = assay: Test C flood test plant response rating 0 to 100; format: in vivo, Echinochloa crus-galli
Method in brief: as §2

[3] = POSTEMERGENCE section, flood test, Rate 1 g/ha
[4] = POSTEMERGENCE section, flood test, Rate 4 g/ha
[5] = Rate 16 g/ha, under POSTEMERGENCE head (flood test species)
[6] = flood test species listed under POSTEMERGENCE, 62 g/ha, 0 to 100 scale

COCN1C(=O)COc2cc(F)c(-c3nn4c(c3Cl)CCCC4)cc21 [Compound 55]
60: Plant response rating, Sorghum (sorghum; 62 g/ha, 0 to 100 scale) | Plant response rating (0 to 100), Barnyardgrass 2 (barnyardgrass; [4])
30: Plant response rating (0 to 100), Corn (corn; Rate 1 g/ha) | Plant response rating (0 to 100), Sorghum (sorghum; Rate 1 g/ha) | Plant response rating (0 to 100), Rice Japonica (rice [2]; [4]) | Plant response rating (0 to 100), Umbrella sedge (umbrella sedge; [4])
50: Plant response rating, Corn (corn; 62 g/ha, 0 to 100 scale) | Plant response rating (0 to 100), Corn (corn; Rate 16 g/ha) | Plant response rating (0 to 100), Sorghum (sorghum; Rate 16 g/ha)
4: Plant response rating, Barley (barley; POSTEMERGENCE, Rate 50 g/ha) | Plant response rating, Rice (rice [1]; POSTEMERGENCE, Rate 50 g/ha)
10: Plant response rating, Bedstraw (bedstraw; POSTEMERGENCE, Rate 50 g/ha) | Plant response rating, Bedstraw (bedstraw; PREEMERGENCE, Rate 50 g/ha) | Plant response rating, Cocklebur (cocklebur; POSTEMERGENCE, Rate 10 g/ha) | Plant response rating, Cocklebur (cocklebur; POSTEMERGENCE, Rate 50 g/ha) | Plant response rating, Lambsquarter (lambsquarters; POSTEMERGENCE, Rate 10 g/ha) | Plant response rating, Lambsquarter (lambsquarters; POSTEMERGENCE, Rate 50 g/ha) | Plant response rating, Lambsquarter (lambsquarters; PREEMERGENCE, Rate 50 g/ha) | Plant response rating, Rape (rape; POSTEMERGENCE, Rate 10 g/ha) | Plant response rating, Rape (rape; POSTEMERGENCE, Rate 50 g/ha) | Plant response rating, Sugar beet (sugar beet; POSTEMERGENCE, Rate 10 g/ha) | Plant response rating, Sugar beet (sugar beet; POSTEMERGENCE, Rate 50 g/ha) | Plant response rating, Sugar beet (sugar beet; PREEMERGENCE, Rate 50 g/ha) | Plant response rating (0 to 100), Rice Japonica (rice [2]; [3]) | Plant response rating (0 to 100), Umbrella sedge (umbrella sedge; [3]) | Plant response rating (0 to 100), Barnyardgrass 2 (barnyardgrass; [3])
80: Plant response rating (0 to 100), Morningglory (morningglory; Rate 1 g/ha)
7: Plant response rating, Blackgrass (blackgrass; POSTEMERGENCE, Rate 50 g/ha) | Plant response rating, Blackgrass (blackgrass; PREEMERGENCE, Rate 50 g/ha) | Plant response rating, Soybean (soybean; POSTEMERGENCE, Rate 10 g/ha)
90: Plant response rating Rice Japonica (rice [2]; [6]) | Plant response rating Umbrella sedge (umbrella sedge; [6]) | Plant response rating (0 to 100), Barnyardgrass 2 (barnyardgrass; [5])
40: Plant response rating (0 to 100), Corn (corn; Rate 4 g/ha) | Plant response rating (0 to 100), Sorghum (sorghum; Rate 4 g/ha)
100: Plant response rating, Morningglory (morningglory; 62 g/ha, 0 to 100 scale) | Plant response rating (0 to 100), Morningglory (morningglory; Rate 4 g/ha) | Plant response rating (0 to 100), Morningglory (morningglory; Rate 16 g/ha) | Plant response rating Pigweed (pigweed; 62 g/ha, 0 to 100 scale) | Plant response rating (0 to 100), Pigweed (pigweed; Rate 1 g/ha) | Plant response rating (0 to 100), Pigweed (pigweed; Rate 4 g/ha) | Plant response rating (0 to 100), Pigweed (pigweed; Rate 16 g/ha) | Plant response rating Barnyardgrass 2 (barnyardgrass; [6])
9: Plant response rating, Bedstraw (bedstraw; POSTEMERGENCE, Rate 10 g/ha) | Plant response rating, Soybean (soybean; POSTEMERGENCE, Rate 50 g/ha)
70: Plant response rating (0 to 100), Rice Japonica (rice [2]; [5]) | Plant response rating (0 to 100), Umbrella sedge (umbrella sedge; [5])
2: Plant response rating, Cocklebur (cocklebur; PREEMERGENCE, Rate 50 g/ha) | Plant response rating, Crabgrass (crabgrass; POSTEMERGENCE, Rate 10 g/ha) | Plant response rating, Nutsedge (purple nutsedge; POSTEMERGENCE, Rate 10 g/ha) | Plant response rating, Nutsedge (purple nutsedge; POSTEMERGENCE, Rate 50 g/ha)
6: Plant response rating, Crabgrass (crabgrass; PREEMERGENCE, Rate 50 g/ha) | Plant response rating, Rape (rape; PREEMERGENCE, Rate 50 g/ha)
3: Plant response rating, Barley (barley; PREEMERGENCE, Rate 50 g/ha) | Plant response rating, Bedstraw (bedstraw; PREEMERGENCE, Rate 10 g/ha) | Plant response rating, Blackgrass (blackgrass; PREEMERGENCE, Rate 10 g/ha) | Plant response rating, Crabgrass (crabgrass; POSTEMERGENCE, Rate 50 g/ha) | Plant response rating, Rice (rice [1]; POSTEMERGENCE, Rate 10 g/ha)
5: Plant response rating, Barley (barley; POSTEMERGENCE, Rate 10 g/ha) | Plant response rating, Blackgrass (blackgrass; POSTEMERGENCE, Rate 10 g/ha)
0: Plant response rating, Barley (barley; PREEMERGENCE, Rate 10 g/ha) | Plant response rating, Crabgrass (crabgrass; PREEMERGENCE, Rate 10 g/ha) | Plant response rating, Rice (rice [1]; PREEMERGENCE, Rate 50 g/ha) | Plant response rating, Soybean (soybean; PREEMERGENCE, Rate 50 g/ha) | Plant response rating, Nutsedge (purple nutsedge; PREEMERGENCE, Rate 50 g/ha)
